Test results published in patent US6169116A, “Amino-tetralines, pharmaceutical compositions containing them and their pharmaceutical uses” (Novartis AG, priority 1995, dated 2001).

What was measured:
[1] = test system: veratridine-induced glutamate release in rat hippocampal slice preparations; assay: veratridine-induced glutamate release in rat hippocampal slice preparations; type: cell-based; settings: for IC50: Rattus norvegicus, read-out: IC50, block of veratridine-induced glutamate release
Method: (§1) The agents of the invention display binding to the veratridine-sensitive sodium channel with IC50 S of from about 0.1 to about 100 μM. For the binding procedure see for example J. B. Brown, Journal of Neuroscience 6, 2064-2070 (1986). They block veratridine-induced glutamate release in rat hippocampal slice preparations at concentrations of about 0.1-1 μM.
The experiment is performed according to a modification of M. J. Leach et al. in Epilepsia 27, 490-497 (1986) and Stroke 24, 1063-1067 (1993), using exogenous glutamate.

[2] = target: veratridine-sensitive sodium channel; assay: binding to the veratridine-sensitive sodium channel; settings: read-out: IC50, affinity for the veratridine binding site
Method: as §1

[3] = test system: ischemia-induced neuronal damage (infarct size); assay: middle cerebral artery (MCA) occlusion model in rats; type: in vivo
Method: Furthermore, the agents of the invention reduce ischemia-induced neuronal damage and ensuing symptoms in the middle cerebral artery (MCA) occlusion model in rats at a dosage of 1-30 mg/kg i.p, i.v. and p.o. [cf. A. Tamura et al., J. Cereb. Blood Flow Metabol. 1, 53-60 (1981)), A. Sauter, M. Rudin, Stroke 17, 1228-1234 (1986)].
(§2) For all these indications the preferred compound is (R)-1,2,3,4-tetrahydro-8-methoxy-N,N-dimethyl-5-[4-(trifluoromethyl)phenyl]-2-naphthaleneamine, which is the compound of example 21. It has for example been determined that in the above mentioned electroshock model, this compound provides protection against maximal electroshock-induced convulsions with a threshold dose of 10 mg/kg p.o. for periods up to 8 hours post-administration.

[4] = test system: maximal electroshock-induced convulsions; assay: protection against maximal electroshock-induced convulsions in mice; type: in vivo
Method: The agents of the invention provide long-lasting protection against maximal electroshock-induced convulsions in mice at doses of about 1 to 100 mg/kg p.o. and about 0.32 to 32 mg/kg i.p. [cf. E. A. Swinyard, J. Am. Pharm. Assoc. Scient. Ed. 38, 201 (1949) and J. Pharmacol. Exptl. Therap. 106, 319 (1952)].
as §2

[5] = 10 mg/kg i.p., immediately after occlusion

## COc1ccc(-c2ccc(C(F)(F)F)cc2)c2c1C[C@H](N(C)C)CC2 [Example 21, (R)-1,2,3,4-tetrahydro-8-methoxy-N,N-dimethyl-5-[4-(trifluoromethyl)phenyl]-2-naphthaleneamine]
[1]
  IC50: 500 nM
[1]; compared with Lifarizine
  potency relative to Lifarizine in the veratridine-induced glutamate release test: about equipotent to Lifarizine
[2]
  IC50: 125 nM
[3]; 3.2 mg/kg i.p. immediately after occlusion
  infarct size reduction: 19%
[3]; [5]
  infarct size reduction: 43%
[3]; 32 mg/kg i.p. immediately after occlusion
  infarct size reduction: 53%
[4]; Mus musculus, po, read-out: threshold dose for protection against maximal electroshock-induced convulsions
  minimal effective dose: 10 mg/kg
[4]; p.o., threshold dose 10 mg/kg
  period of protection against maximal electroshock-induced convulsions post-administration: up to 8 hours

## Nc1nnc(-c2cccc(Cl)c2Cl)c(N)n1 [Lamotrigine, reference compound]
[1]
  IC50: 20000 nM

## Nc1nc2ccc(OC(F)(F)F)cc2s1 [Riluzole, reference compound]
[1]
  IC50: 5000 nM

## Cc1ccc(-c2nc(C)c(CN3CCN(C(c4ccccc4)c4ccccc4)CC3)[nH]2)cc1 [Lifarizine, reference compound]
[3]; [5]
  infarct size reduction: 25%
